This is an account of results in patent US20230031406A1, “COMPOUNDS AND COMPOSITIONS FOR TREATING CONDITIONS ASSOCIATED WITH NLRP ACTIVITY” (Novartis AG, priority 2018, published 2023).

Like-named read-outs stand apart in the source and are kept apart here.

The subject of this assay is PMA-differentiated THP-1 cells. The assay is described as follows: IL-1β production in PMA-differentiated THP-1 cells stimulated with gramicidin (hTHP-1 assay containing 2% fetal bovine serum; Procedures 1 and 2). It counts as cell-based, human. As to conditions: 2% fetal bovine serum. The procedure, abridged:
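Compound titrations in 0.37% final DMSO were added to THP-1 cells that had been plated after 16-18 h PMA treatment, 50,000 per well in 2% FBS. One hour later the cells received gramicidin (5 μM, 2 h) and were centrifuged. HTRF detected IL-1β in the collected supernatants.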

[1] abbreviates: Table B3, hTHP-1 assay, class symbols, read-out: IC50.
[2] abbreviates: Homo sapiens, THP-1, Table B1, class symbols, read-out: Average IC50 of compounds in hTHP-1 assay: hTHP-1 IC50.
The mark [3] stands for this setting: Table B2, class symbols, read-out: hTHP-1 IC50.
Where [4] appears, read: Homo sapiens, THP-1, Table B3, hTHP-1 assay, class symbols, read-out: IC50.
[5] abbreviates: Homo sapiens, THP-1, Table B2, class symbols, read-out: hTHP-1 IC50.
Setting [6] is: Table B1, class symbols, read-out: Average IC50 of compounds in hTHP-1 assay: hTHP-1 IC50.

Turning to `CC(C)(O)c1csc(S(N)(=O)=NC(=O)Nc2c3c(nc(C(F)(F)F)c2C2CC2)CCC3)c1` (single isomer, unassigned) [Example 646, (R) or (S)-N′-((3-((3-2-(trifluoromethyl)-6,7-dihydro-5H-cyclopenta[b]pyridin-4-yl)carbamoyl)-4-(2-hydroxypropan-2-yl)thiophene-2-sulfonimidamide], the IC50 under setting [1] was in the range of 40 to 200 nM.

Turning to `CC1(C)Cc2nc3c(c(NC(=O)N=S(N)(=O)c4cnc(C(C)(C)O)s4)c2C1)CCC3` (stereo not shown) [Compound 147, N′-((2,2-dimethyl-1,2,3,5,6,7-hexahydrodicyclopenta[b,e]pyridin-8-yl)carbamoyl)-2-(2-hydroxypropan-2-yl)thiazole-5-sulfonimidamide], the IC50 under setting [2] is 5000 to 30000 nM.

Consider `CC(C)(O)c1ncc(S(N)(=O)=NC(=O)Nc2c3c(nc4c2CCC42CC2)CCC3)s1` (stereo not shown) [Compound 136, 2-(2-hydroxypropan-2-yl)-N′-((1′,5′,6′,7′-tetrahydro-2′H-spiro[cyclopropane-1,3′-dicyclopenta[b,e]pyridin]-8′-yl)carbamoyl)thiazole-5-sulfonimidamide], for which, under setting [2], the IC50 is 40 to 200 nM.

On to `CC(C)(O)c1csc(S(N)(=O)=NC(=O)Nc2cc(C3CC3)nc3c2CCC3)c1` (stereo not shown) [Compound 176, N′-((2-cyclopropyl-6,7-dihydro-5H-cyclopenta[b]pyridin-4-yl)carbamoyl)-4-(2-hydroxypropan-2-yl)thiophene-2-sulfonimidamide], for which the IC50 under setting [2] lay within 5000 to 30000 nM.

Turning to `CCc1csc(S(N)(=O)=NC(=O)Nc2c3c(nc4c2CC[C@H]4C)CCC3)c1` (single isomer, unassigned) [Compound 721b, (R) or (S)-4-Ethyl-N′-(((R)-3-methyl-1,2,3,5,6,7-hexahydrodicyclopenta[b, e]pyridin-8-yl)carbamoyl)thiophene-2-sulfonimidamide], the IC50 under setting [3] was in the range of 40 to 200 nM.

As for `CCn1cc(F)c(S(N)(=O)=NC(=O)Nc2c3c(nc4c2CC[C@H]4C)CCC3)n1` (stereo partly drawn) [Example 602, 1-Ethyl-4-fuoro-N′-(((R)-3-methyl-1,2,3,5,6,7-hexahydrodicyclopenta[b,e]pyridin-8-yl)carbamoyl)-1H-pyrazole-3-sulfonimidamide], the IC50 under setting [4] was 8 to 40 nM.

As to `Cc1c(C2(F)CC2)nc2c(c1NC(=O)N=S(N)(=O)c1sc(C(C)(C)O)cc1F)CCC2` (stereo not shown) [Compound 733], the IC50 under setting [5] was in the range of 1000 to 5000 nM.

Consider `CC(C)(O)c1cc(Br)c(S(N)(=O)=NC(=O)Nc2c3c(nc4c2CCC4)CCC3)s1` (single isomer, unassigned) [Compound 690b, (R) or (S)-3-Bromo-N′-((1,2,3,5,6,7-hexahydrodicyclopenta [b,e]pyridin-8-yl)carbamoyl)-5-(2-hydroxypropan-2-yl)thiophene-2-sulfonimidamide], for which the IC50 under setting [5] fell in the range of 1000 to 5000 nM.

Take `CC1CCc2c1nc1c(c2NC(=O)N=S(N)(=O)c2ccn(C(C)C)n2)CCC1` (single isomer, unassigned) [Compound 129aa, (R,R) or (R,S)-1-isopropyl-N′-((3-methyl-1,2,3,5,6,7-hexa-hydrodicyclo-penta[b,e]pyridin-8-yl)carbamoyl)-1H-pyrazole-3-sulfonimidamide]: the IC50 under setting [6] was in the range of 40 to 200 nM.

`Cc1c(C2(F)CC2)nc2c(c1NC(=O)N=S(N)(=O)c1sc(C(C)(C)O)cc1F)CCC2` (stereo not shown) [Example 612, 3-Fluoro-N′-((2-(1-fluorocyclopropyl)-3-methyl-6,7-dihydro-5H-cyclopenta[b]pyridin-4-yl)carbamoyl)-5-(2-hydroxypropan-2-yl)thiophene-2-sulfonimidamide]: the IC50 under setting [4] was in the range of 1000 to 5000 nM.

`CC(C)(O)c1csc(S(N)(=O)=NC(=O)Nc2cc(C(F)(F)F)nc3c2CCC3)c1` (single isomer, unassigned) [Example 668, (S) or (R)-4-(2-hydroxypropan-2-yl)-N′-((2-(trifluoromethyl)-6,7-dihydro-5H-cyclopenta[b]pyridin-4-yl)carbamoyl)thiophene-2-sulfonimidamide]: the IC50 (Homo sapiens, THP-1, Table B3, hTHP-1 assay, numeric values, read-out: IC50) was more than 30000 nM.

Turning to `CNS(=O)(=NC(=O)Nc1c2c(nc3c1CCC3)CCC2)c1ccc(CN(C)C)cc1` (single isomer, unassigned) [Compound 120a, (R) or (S)-4-((dimethylamino)methyl)-N′-((1,2,3,5,6,7-hexahydro-dicyclopenta[b,e]pyridin-8-yl)carbamoyl)-N-methylbenzene-sulfonimidamide], the IC50 (Homo sapiens, THP-1, Table B1, numeric bounds, read-out: Average IC50 of compounds in hTHP-1 assay: hTHP-1 IC50) was more than 30000 nM.

Turning to `CC1CCc2c1nc1c(c2NC(=O)N=S(N)(=O)c2cnc(C(C)(C)O)s2)CCC1` (single isomer, unassigned) [Compound 162aa, (S,S) or (S,R)-2-(2-hydroxypropan-2-yl)-N′-((3-methyl-1,2,3,5,6,7-hexahydrodicyclo-penta[b,e]pyridin-8-yl)carbamoyl)thiazole-5-sulfonimidamide], under setting [6], the IC50 is 5000 to 30000 nM.

`Cc1nc(C(C)(C)O)ccc1S(N)(=O)=NC(=O)Nc1c2c(nc3c1CCC3)CCC2` (stereo not shown) [Compound 157, N′-((1,2,3,5,6,7-hexahydrodicyclopenta[b,e]pyridin-8-yl)carbamoyl)-6-(2-hydroxypropan-2-yl)-2-methylpyridine-3-sulfonimidamide]: the IC50 under setting [2] was in the range of 5000 to 30000 nM.

Consider `CCn1ccc(S(N)(=O)=NC(=O)Nc2c(C)c(C(F)(F)F)nc3c2CCC3)n1` (stereo not shown) [Compound 731], for which the IC50 under setting [5] was in the range of 1000 to 5000 nM.

In the case of `CC(C)(O)c1cc(F)c(S(N)(=O)=NC(=O)Nc2c3c(nc(C4CC4)c2C2CC2)CCC3)s1` (stereo not shown) [Example 570, N′-((2,3-dicyclopropyl-6,7-dihydro-5H-cyclopenta[b]pyridin-4-yl)calbamoyl)-3-fluoro-5-(2-hydroxypropan-2-yl)thiophene-2-sulfonimidamide], the IC50 under setting [4] fell in the range of 200 to 1000 nM.

As to `CCn1cc(F)c(S(N)(=O)=NC(=O)Nc2c3c(nc4c2CC[C@H]4C)CCC3)n1` (single isomer, unassigned) [Example 670, (S) or (R)-1-ethyl-4-fluoro-N′-(((R)-3-methyl-1,2,3,5,6,7-hexahydrodicyclopenta[b,e]pyridin-8-yl)carbamoyl)-1H-pyrazole-3-sulfonimidamide], the IC50 under setting [1] lay in the range of 1000 to 5000 nM.

In the case of `CC(C)(O)c1sc(S(N)(=O)=NC(=O)Nc2c3c(nc4c2CCC4(C)C)CCC3)cc1F` (stereo not shown) [Compound 613, N′-((3,3-dimethyl-1,2,3,5,6,7-hexahydrodicyclopenta[b,e]pyridin-8-yl)carbamoyl)-4-fluoro-5-(2-hydroxypropan-2-yl)thiophene-2-sulfonimidamide], under setting [5], the IC50 lay in the range of 200 to 1000 nM.

Turning to `CC1(C)CCc2c1nc1c(c2NC(=O)N=S(N)(=O)c2cnn3c2OC[C@H](O)C3)CCC1` (stereo partly drawn) [Example 603, (6R)-N′-((3,3-dimethyl-1,2,3,5,6,7-hexahydrodicyclopenta[b,e]pyridin-8-yl)carbamoyl)-6-hydroxy-6,7-dihydro-5H-pyrazolo[5,1-b][1,3]oxazine-3-sulfonimidamide], the IC50 under setting [4] fell in the range of 1000 to 5000 nM.

On to `CC(C)n1cc(S(N)(=O)=NC(=O)Nc2c3c(nc4c2CCC4(C)C)CCC3)c(CO)n1` (single isomer, unassigned) [Compound 653a, (R) or (S)-N′-((3,3-dimethyl-1,2,3,5,6,7-hexahydrodicyclopenta [b,e]pyridin-8-yl)carbamoyl)-3-(hydroxymethyl)-1-isopropyl-1H-pyrazole-4-sulfonimidamide], for which, under setting [5], the IC50 lay within 5000 to 30000 nM.

Consider `CN(C)C(=O)c1ncc(S(N)(=O)=NC(=O)Nc2c3c(nc4c2CCC4(C)C)CCC3)s1` (stereo not shown) [Example 751, 5-(N′-((3,3-dimethyl-1,2,3,5,6,7-hexahydrodicyclopenta[b,e]pyridin-8-yl)carbamoyl)sulfamidimidoyl)-N,N-dimethyl-thiazole-2-carboxamide], for which the IC50 (Homo sapiens, THP-1, Table B4, class symbols, read-out: hTHP-1 IC50) was in the range of 1000 to 5000 nM.

On to `CC1CCc2c1nc1c(c2NC(=O)N=S(N)(=O)c2ncc(C(C)(C)O)s2)CCC1` (stereo not shown) [Compound 140, 5-(2-hydroxypropan-2-yl)-N′-((3-methyl-1,2,3,5,6,7-hexahydrodicyclopenta[b,e]pyridin-8-yl)carbamoyl)thiazole-2-sulfonimidamide], for which the IC50 under setting [6] lay within 40 to 200 nM.

Regarding `CCc1c(C(F)(F)F)nc2c(c1NC(=O)N=S(N)(=O)c1cnc(C(C)(C)O)s1)CCC2` (single isomer, unassigned) [Compound 610a, (R) or (S)-N′-((3-ethyl-2-(trifluoromethyl)-6,7-dihydro-5H-cyclopenta[b]pyridin-4-yl)carbamoyl)-2-(2-hydroxypropan-2-yl)thiazole-5-sulfonimidamide], the IC50 under setting [3] lay within 1000 to 5000 nM.

In the case of `C[C@H](O)c1csc([S@@](N)(=O)=NC(=O)Nc2c3c(nc4c2CC[C@H]4C)CCC3)c1` (single isomer, unassigned) [Example 662, (S)-4-((S) or (R)-1-hydroxyethyl)-N′-(((R)-3-methyl-1,2,3,5,6,7-hexahydrodicyclopenta[b,e]pyridin-8-yl)carbamoyl)thiophene-2-sulfonimidamide], the IC50 under setting [4] was 5000 to 30000 nM.

As for `CC1(C)CCc2c1nc1c(c2NC(=O)N=S(N)(=O)c2nn(C(F)F)cc2F)CCC1` (single isomer, unassigned) [Example 721, (R) or (S)-1-(difluoromethyl)-N′-((3,3-dimethyl-1,2,3,5,6,7-hexahydrodicyclopenta[b,e]pyridin-8-yl)carbamoyl)-4-fluoro-1H-pyrazole-3-sulfonimidamide], under setting [1], the IC50 lay in the range of 40 to 200 nM.

As a reminder, the IC50 is the midpoint of a concentration-inhibition curve.
